# Measured values: the supplement of paper PMC10307832
# What was measured:
# Test in all cases: relative viability (nuclei count vs DMSO), 5 days (fraction); higher = more cells survive
# [1] = compound: C[C@]12O[C@H](C[C@]1(O)CO)n1c3ccccc3c3c4c(c5c6ccccc6n2c5c31)CNC4=O [Lestaurtinib] + C[C@]1(O)C[C@@H](c2nc(-c3ccc4ccc(-c5ccccc5)nc4c3)c3c(N)nccn32)C1 [Linsitinib] (partner 1 µM)
# How it was run: (§1)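 Medians of duplicate plates are given as relative viability. That measure is the nuclei count in treated wells divided by the count in vehicle wells. Counts were taken on 4× images of lung cancer cell lines in 1536-well plates, 5 days after pin-tool dosing the day after seeding with one drug alone or a fixed anchor-drug dose plus five library-drug doses (not always all listed) in √10 steps.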
# [2] = compound: C[C@]12O[C@H](C[C@]1(O)CO)n1c3ccccc3c3c4c(c5c6ccccc6n2c5c31)CNC4=O [Lestaurtinib] + Nc1ncn([C@H]2C[C@H](O)[C@@H](CO)O2)c(=O)n1 [Decitabine] (partner 2 µM)
# How it was run: as §1
# TPCA-1 + OSI-027 = compound: C1=CC(=CC=C1C2=CC(=C(S2)NC(=O)N)C(=O)N)F [TPCA-1] + COc1cccc2cc(-c3nc([C@H]4CC[C@H](C(=O)O)CC4)n4ncnc(N)c34)[nH]c12 [OSI-027] (partner 0.5 µM)
# How it was run: as §1
# [3] = compound: C1/C(=C\C2=CC=CS2)/C(=O)/C(=C/C3=CC=CS3)/C1 + Cc1cc(Nc2cc(N3CCN(C)CC3)nc(Sc3ccc(NC(=O)C4CC4)cc3)n2)n[nH]1 [Tozasertib] (partner 0.1 µM)
# How it was run: as §1
Cell Line,relative viability ([1]; first compound 0.005 µM),relative viability ([1]; first compound 0.01581 µM),relative viability ([1]; first compound 0.05 µM),relative viability ([1]; first compound 0.1581 µM),relative viability ([1]; first compound 0.5 µM),relative viability ([2]; first compound 0.005 µM),relative viability ([2]; first compound 0.01581 µM),relative viability ([2]; first compound 0.05 µM),relative viability ([2]; first compound 0.1581 µM),relative viability ([2]; first compound 0.5 µM),relative viability (TPCA-1 + OSI-027; first compound 0.04 µM),relative viability (TPCA-1 + OSI-027; first compound 0.1265 µM),relative viability (TPCA-1 + OSI-027; first compound 0.4 µM),relative viability (TPCA-1 + OSI-027; first compound 1.265 µM),relative viability (TPCA-1 + OSI-027; first compound 4 µM),relative viability ([3]; first compound 0.2 µM),relative viability ([3]; first compound 0.6325 µM),relative viability ([3]; first compound 2 µM),relative viability ([3]; first compound 6.325 µM),relative viability ([3]; first compound 20 µM)
201T,1.03,0.987,0.992,0.926,0.937,0.858,0.93,0.98,0.934,0.926,0.781,0.751,0.782,0.669,0.484,0.959,0.968,1,0.897,0.911
NCI-H2009,1.25,1.23,1.09,1.01,0.581,0.373,0.392,0.399,0.36,0.347,0.773,0.647,0.623,0.406,0.327,0.764,0.814,0.752,0.657,0.81
NCI-H1395,1.07,1.2,0.836,0.894,0.421,0.778,0.765,0.774,0.684,0.453,0.745,0.631,0.738,0.585,0.592,0.767,0.879,0.91,0.686,0.754
LU99A,0.46,0.443,0.3,0.284,0.21,0.711,0.84,0.572,0.366,0.276,0.325,0.297,0.322,0.232,0.258,0.287,0.284,0.266,0.267,0.301
NCI-H1437,1.02,1.24,0.739,0.775,0.302,0.546,0.649,0.645,0.626,0.636,0.888,0.89,0.908,0.921,0.652,0.408,0.413,0.452,0.273,0.407
EKVX,1.03,1.13,0.949,1.08,0.552,0.518,,0.357,0.396,0.342,0.806,0.671,0.771,0.626,0.586,0.405,0.452,0.329,0.424,0.394
ABC-1,0.834,0.993,0.603,0.536,0.165,1.31,1.36,1.12,0.96,0.66,0.592,0.515,0.62,0.475,0.293,0.182,0.17,0.195,0.195,0.218
